{"source": "paper PMC2857410", "about": "(The Journal of neuroscience : the official journal of the …, 2009)", "key": {"[1]": {"target": "heteromeric α7β2-nAChR (Xenopus oocytes) (Rattus norvegicus, UniProt P12390+Q05941)", "sequence (Q05941 23-502)": "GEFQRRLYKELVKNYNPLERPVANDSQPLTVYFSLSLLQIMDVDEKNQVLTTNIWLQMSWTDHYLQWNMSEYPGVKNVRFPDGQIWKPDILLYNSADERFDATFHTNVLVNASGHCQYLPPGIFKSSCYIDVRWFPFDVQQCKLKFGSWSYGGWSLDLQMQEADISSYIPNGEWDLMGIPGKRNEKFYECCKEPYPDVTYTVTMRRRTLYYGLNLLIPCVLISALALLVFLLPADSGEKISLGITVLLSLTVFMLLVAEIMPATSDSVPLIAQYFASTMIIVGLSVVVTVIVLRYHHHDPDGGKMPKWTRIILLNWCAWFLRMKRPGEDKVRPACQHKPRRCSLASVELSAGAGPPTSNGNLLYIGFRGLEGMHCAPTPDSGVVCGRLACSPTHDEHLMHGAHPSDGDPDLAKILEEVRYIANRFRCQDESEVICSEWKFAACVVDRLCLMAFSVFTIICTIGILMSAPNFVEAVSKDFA", "sequence (P12390 25-500)": "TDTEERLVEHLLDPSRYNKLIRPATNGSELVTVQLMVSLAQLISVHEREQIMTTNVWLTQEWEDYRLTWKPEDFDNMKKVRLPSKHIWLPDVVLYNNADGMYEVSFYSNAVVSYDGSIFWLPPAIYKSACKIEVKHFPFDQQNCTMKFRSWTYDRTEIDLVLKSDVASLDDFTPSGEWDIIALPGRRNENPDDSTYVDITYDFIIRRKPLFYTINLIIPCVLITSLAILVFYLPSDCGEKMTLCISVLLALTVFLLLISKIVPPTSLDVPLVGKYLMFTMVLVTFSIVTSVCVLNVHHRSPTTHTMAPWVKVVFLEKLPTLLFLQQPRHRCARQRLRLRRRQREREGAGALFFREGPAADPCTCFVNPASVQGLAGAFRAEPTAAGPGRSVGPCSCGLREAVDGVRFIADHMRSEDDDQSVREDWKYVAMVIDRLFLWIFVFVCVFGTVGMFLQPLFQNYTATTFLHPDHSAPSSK", "assay": "two-electrode voltage clamp, agonist-induced current", "format": "cell-based", "details": "10 mM, 2 s exposure, -70 mV, pH 7.5"}, "[2]": {"target": "homomeric α7-nAChR (Xenopus oocytes) (Rattus norvegicus, UniProt Q05941)", "sequence (Q05941 23-502)": "as the sequence (Q05941 23-502) above", "assay": "two-electrode voltage clamp, agonist-induced current", "format": "cell-based", "details": "10 mM, 2 s exposure, -70 mV, pH 7.5"}}}
{"molecule": "C[N+](C)(C)CCO", "note": "[choline]", "values": [{"measurement": "two-electrode voltage clamp, agonist-induced current", "setting": "[1]", "result": "exhibited smaller peak current responses to choline and slower current decay rates"}, {"measurement": "two-electrode voltage clamp, agonist-induced current", "setting": "[2]", "result": "oocytes injected with rat α7-nAChR subunit cRNA alone"}]}
